Measured values from patent publication US20050147527A1, “Microbial destruction using a gas phase decontaminant” (priority 2004, published 2005).
Several values for one entry are separate records, joined by “and”; a condition that tells them apart may be missing. Identical values can stand only once. Like-named read-outs stand apart in the source and are kept apart here.

Assays:
[1] = test system: streptomycin-resistant E. coli; details: 180° F.; for Log Post-Disinfection (CFU/g) / Log Reduction (CFU/g): DT 18 min
Method: (§1) The following experiments were performed using a system in accordance with the present invention. Food crops were pruned of inedible roots, leaves, etc., and weighed. A given food crop was then inoculated with a single challenge microorganism. All challenge microorganisms were purchased from ATCC as streptomycin-resistant strains-Esherichia coli (E. coli), Staphylococcus aureus (S. aureus), and Salmonella choleraesuis (S. choleraesuis). […] After inoculation, the crops were left to dry for 30 minutes to 1 hour. The crops were then placed in the Ziploc® bag and into the vacuum chamber. […] Parameters such as vacuum pressure, dispensing time, and sterilization wait time were varied in order to arrive at some conclusion concerning the optimum conditions for effective disinfection of the food crops. After the disinfection cycle had ended, the crops were neutralized in 50 mL of 10% thiosulfate solution contained in a sterile mastication bag.
(§2) The bag was then placed in a masticator and pulverized for 2 minutes. The liquid contents were then serially diluted and plated onto the appropriate agar medium. The plates were incubated at 37° C. for 24 hours and plate counts were performed. […] A log reduction in terms of CFU/g was calculated by subtracting the plate counts of the disinfected food from that of its respective control, as shown in Table 1.
(§3) Lettuce was used as the food crop while streptomycin-resistant E. coli was chosen as the challenge microorganism. […] Each food crop was inoculated with streptomycin-resistant strains of E. coli, S. aureus, and S. choleraesuis in separate experiments and 3 minutes was used as the dispense time in every run.

[2] = test system: streptomycin-resistant S. choleraesuis; details: Radishes; dispense time 3 min; 180° F.; 18 inch Hg; wait 0 min
Method: as §1, §2, §3

[3] = test system: streptomycin-resistant S. aureus; details: 180° F.; for Log Post-Disinfection (CFU/g) / Log Reduction (CFU/g): DT 18 min
Method: as §1, §2, §3

[4] = test system: Bacillus subtilis spores
Method: A protocol analogous to that used for the food crops was employed for spore testing on stainless steel coupons. 3-1.75 cm×3.75 cm stainless steel coupons were each inoculated (front & back) with a total of 100 μL of Bacillus subtilis spores. The spores were allowed to dry and the three coupons were aseptically transferred to a Ziploc® bag. The remaining protocol used was similar to that of the food crops except that each coupon was neutralized in 8 mL of 10% thiosulfate solution and each coupon's solution was serially diluted and plated onto media.

[5] = test system: E. coli, S. aureus, S. choleraesuis
[6] = Carrots, VP 15 inch Hg, SW 10 min
[7] = Carrots, VP 15 inch Hg, SW 15 min
[8] = Carrots, VP 15 inch Hg, SW 20 min
[9] = Carrots, VP 15 inch Hg, SW 30 min
[10] = Carrots, VP 17 inch Hg, SW 5 min
[11] = Carrots, VP 18 inch Hg, SW 10 min
[12] = Lettuce, VP 15 inch Hg, SW 10 min
[13] = Lettuce, VP 15 inch Hg, SW 15 min
[14] = Radishes, VP 15 inch Hg, SW 10 min
[15] = Radishes, VP 15 inch Hg, SW 15 min
[16] = Table 3, Lettuce, dispense time 3 min, 18 inch Hg, wait 0 min
[17] = Radishes, VP 15 inch Hg, SW 30 min
[18] = Radishes, VP 20 inch Hg, SW 5 min
[19] = Radishes, VP 20 inch Hg, SW 10 min
[20] = Radishes, VP 20 inch Hg, SW 15 min
[21] = Radishes, dispense time 3 min, 18 inch Hg, wait 0 min
[22] = stainless steel coupons, 12 minute dispense time, 180° F., 18 inch Hg, wait 0 min

## OO [hydrogen peroxide]
[1]; [6]
  Log Post-Disinfection (CFU/g): 0 CFU/g
  Log Reduction (CFU/g): 4.90 CFU/g
[1]; [7]
  Log Post-Disinfection (CFU/g): 0 CFU/g
  Log Reduction (CFU/g): 4.90 CFU/g
[1]; [8]
  Log Post-Disinfection (CFU/g): 0 CFU/g
  Log Reduction (CFU/g): 5.45 CFU/g
[1]; [9]
  Log Post-Disinfection (CFU/g): 0 CFU/g
  Log Reduction (CFU/g): 4.90 CFU/g
[1]; [10]
  Log Post-Disinfection (CFU/g): 0 CFU/g
  Log Reduction (CFU/g): 5.45 CFU/g
[1]; [11]
  Log Post-Disinfection (CFU/g): 0 CFU/g
  Log Reduction (CFU/g): 5.45 CFU/g
[1]; [12]
  Log Post-Disinfection (CFU/g): 0 CFU/g
  Log Reduction (CFU/g): 6.38 CFU/g
[1]; [13]
  Log Post-Disinfection (CFU/g): 1.93 CFU/g
  Log Reduction (CFU/g): 4.31 CFU/g
[1]; [14]
  Log Post-Disinfection (CFU/g): 2.85 CFU/g
  Log Reduction (CFU/g): 2.95 CFU/g
[1]; [15]
  Log Post-Disinfection (CFU/g): 3.73 CFU/g
  Log Reduction (CFU/g): 2.07 CFU/g
[1]; [16]
  Log10 Post-Disinfection (CFU/g): 0 CFU/g
  Log10 Reduction (CFU/g): ≧6.23 CFU/g
[2]
  Log10 Post-Disinfection (CFU/g): 1.67 CFU/g and 1.95 CFU/g and 1.82 CFU/g
[3]; [13]
  Log Post-Disinfection (CFU/g): 0 CFU/g
  Log Reduction (CFU/g): 6.81 CFU/g
[3]; [17]
  Log Post-Disinfection (CFU/g): 0 CFU/g
  Log Reduction (CFU/g): 6.33 CFU/g
[3]; [18]
  Log Post-Disinfection (CFU/g): 0 CFU/g
  Log Reduction (CFU/g): 6.09 CFU/g
[3]; [19]
  Log Post-Disinfection (CFU/g): 0 CFU/g
  Log Reduction (CFU/g): 6.09 CFU/g
[3]; [20]
  Log Post-Disinfection (CFU/g): 1.61 CFU/g
  Log Reduction (CFU/g): 4.48 CFU/g
[3]; [21]
  Log10 Post-Disinfection (CFU/g): 0 CFU/g
  Log10 Reduction (CFU/g): ≧5.25 CFU/g
[4]; [22]
  Log10 Post-Disinfection (CFU/cm^2): 0 CFU/cm^2
  Log10 Reduction (CFU/cm^2): 5.42 CFU/cm^2
[4]; within a 12 minute dispense time
  eradication of spores: completely eradicate spores
[5]; 3 minutes dispense time
  log reductions for every combination of food crop and microbial challenge (Table 3): greater than 3
[5]; all food crops, microbial challenges and parameters of Table 1
  average log reduction of all of the runs shown in Table 1: 4.63
[5]; no matter the food crop, microbial challenge or disinfection parameters
  log reduction (lowest over all runs of Table 1): ≥ 2
